The values that follow come from patent US20260138962A1, “SYNTHESIS OF DERIVATIVES OF SIPH[…] THERAPEUTIC USE THEREOF” (priority 2022, published 2026).

The inhibition is the percentage by which the read-out fell short of the control. One may read the IC50 as the concentration at which inhibition is half-maximal. A lower IC50 goes with greater potency in that assay.

Common to all, as to test: microbe, parasite or virus in culture
Common to all, as to type: cell-based

Assay [1] has as its system SARS-CoV-2 Wuhan isolate (wild type). As to conditions: Severe acute respiratory syndrome coronavirus 2, Vero C1008; positive control at 3.77 μg/ml; […].
A further assay has as its system SARS-CoV-2 Beta variant. The conditions noted are these: Severe acute respiratory syndrome coronavirus 2, Vero C1008.
The next assay concerns SARS-CoV-2 Delta variant. As to conditions: Severe acute respiratory syndrome coronavirus 2, Vero C1008.
The mark [2] stands for this setting: positive control at 3.77 μg/ml, […].

In brackets after ≈: the same amount, converted by molar mass.

With `CCC(CC)COC(=O)[C@H](C)N[P@](=O)(OC[C@H]1O[C@@](C#N)(c2ccc3c(N)ncnn23)[C@H](O)[C@@H]1O)Oc1ccccc1` [Remdesivir, reference compound], the inhibition at 3.77 µg/mL (in assay [1]; with SARS-CoV-2 Beta variant (setting [2]); in the assay on SARS-CoV-2 Delta variant (setting [2])) was 100% in each case.

As to `CC1=C2C[C@@H]3[C@@H](C)C=CC(=O)[C@@]3(C)C[C@@]2(O)OC1=O` [HLS, (4aR,5S,8aS,9aR)-9a-hydroxy-3,5,8a-trimethyl-4a,5,9,9a-tetrahydronaphtho[2,3-b]furan-2,8(4H,8aH)-dione], the IC50 is 8.93 µg/mL (≈ 34 µM) with SARS-CoV-2 Beta variant (Beta strain, in vitro) and 6.15 µg/mL (≈ 23.4 µM) with SARS-CoV-2 Delta variant (Delta strain, in vitro). The inhibition at 0.5 µg/mL in the assay with SARS-CoV-2 Beta variant (Beta, 0.5 μg/ml, Vero E6 cells) stood at 25%; in the assay with SARS-CoV-2 Delta variant (Delta, 0.5 μg/ml, Vero E6 cells), 0%. In addition, the inhibition at 2 µg/mL in the assay on SARS-CoV-2 Beta variant (Beta, 2 μg/ml, Vero E6 cells) turned out to be 25%; with SARS-CoV-2 Delta variant (Delta, 2 μg/ml, Vero E6 cells), 25%. In addition, the inhibition at 5 µg/mL amounted to 50% with SARS-CoV-2 Beta variant (Beta, 5 μg/ml, Vero E6 cells) and 50% with SARS-CoV-2 Delta variant (Delta, 5 μg/ml, Vero E6 cells). Moreover, the inhibition at 16 µg/mL with SARS-CoV-2 Beta variant (Beta, 16 μg/ml, Vero E6 cells) turned out to be 75%; in the assay with SARS-CoV-2 Delta variant (Delta, 16 μg/ml, Vero E6 cells), 75%. For the same molecule, the inhibition at 50 µg/mL in the assay with SARS-CoV-2 Beta variant (Beta, 50 μg/ml, Vero E6 cells) turned out to be 100%; in the assay on SARS-CoV-2 Delta variant (Delta, 50 μg/ml, Vero E6 cells), 100%.
